# Experimental data: US11357748B2, “Methods for treating mendelian disorders of the epigenetic machinery” (THE JOHNS HOPKINS UNIVERSITY, priority 2014, dated 2022)
# “Also recorded” adds a separate entry of the source.
# Legend:
# [1] = system: H3K4 trimethylation and histone acetylation; conditions: Huang et al. (2011); cited from earlier work
# [2] = system: genome-wide H3K4me3 in spleen cells; experiment: ChIP-seq of H3K4me3 in spleen cells of treated mice; assay type: in vivo, mouse; conditions: 10 mg/kg/day; vs Kmt2d+/+ littermates on vehicle; FIG. 25E, 27B
# Protocol: Spleens were dissected from eight mice, four from each kmt2d genotype (+/βGeo or +/+) where half of each genotype was treated with AR-42 and half with vehicle only. Spleens were minced and passed through a 40 µm cell strainer to obtain single cell suspensions. 10 million cells were used for each ChIP-seq experiment following the native chromatin immunoprecipitation protocol, as previously described (Gilfillan et al. (2012) BMC Genomics 13:645), using a ChIP-grade antibody against H3K4me3 (9727, Cell Signaling Technology, Beverly, Mass.).
# Sequencing was performed using a MiSeq system (Illumina, San Diego, Calif.). 4.8-9.6 million paired-end 26 bp reads were obtained per sample (Table 2; nReads=number of reads, alignRate=fraction aligned to genome; FRIP=fraction of reads in peaks). Reads were aligned to the m. musculus genome, version mm 10, using Bowtie 2 (Langmead and Salzberg (2012) Nat. Methods. 9: 357-9). Each sample was examined with regard to alignment rate as well as FRIP (fraction of reads in peaks), a measure of the ChIP efficiency (Table 2). […] For analysis, reads were merged into one meta-sample and peak calling was performed using MACS version 1.4.2 (Zhang et al. (2008) Genome Biol. 9: R137). […] This created a peak by sample matrix of read counts. […] Fold change and overall abundance was calculated as per edgeR. […]
# [3] = system: DCX positive cells in the GCL (neurogenesis); experiment: Doublecortin (DCX) expression in the GCL (neurogenesis) after oral AR-42; assay type: in vivo, mouse
# Excerpt: Kmt2d^+/βGeo mice, also named Mll2Gt^(RRt024) Byg, were acquired from Bay Genomics (University of California). All experimental mice were on a mixed C57BL/6J and 129/SvEv background. Expected Mendelian ratios were observed when heterozygous animals were bred to wild-type. In heterozygous crosses, however, there was uniform embryonic lethality of homozygotes by ED 12, the earliest developmental stage assayed. For treatment with AR-42, mice were orally gavaged daily with drug (Selleck Chemicals, Houston, Tex.) solubilized in vehicle (0.5% methylcellulose, 0.1% Tween-80, water) or with vehicle alone. Drug delivery information was kindly provided by Drs. Chen and Kulp from Ohio State University (Huang et al. (2011) Mol. Pharmacol. 79:197-20619). Drug was administered for 14 days and mice were sacrificed on day 15. Morris water maze testing was initiated at day 7 and a dose of 10 mg/kg/day was used for these studies. For quantification of DCX positive cells, doses of 0, 5, 10 and 25 mg/kg/day were used. Genotyping was performed using primers B-GeoF-([…]; SEQ ID NO: 1) and B-GeoR-([…]; SEQ ID NO: 2) that are specific for the targeted allele and TcrdF-([…]; SEQ ID NO: 3) and TcrdR-([…]; SEQ ID NO: 4) that control for sufficient DNA concentration. Real-time PCR using the same primers allows discrimination between the heterozygous and homozygous state for the targeted allele. Maxillary protrusion was evaluated by ten investigators blinded to genotype and they were asked to rate maxillary protrusion on radiographs as either large (2) or small (1). […] All experiments were performed using mouse protocols approved by the Animal Care and Use Committee of Johns Hopkins University School of Medicine. The mouse protocols used for this study are in accordance with the guidelines used by the NIH for mouse care and handling.
# Every 6th brain section was selected and then blocked with 5% Bovine Serum Albumin (BSA) at room temperature followed by incubation with primary antibodies overnight at 4° C. Secondary antibodies were then applied for 1 hour at room temperature, after which sections were mounted onto microscope slides with Vectamount with DAPI (Vector Laboratories, Burlingame, Calif.). Primary antibodies included Doublecortin (DCX) (SC-8066, Santa Cruz Biotechnology, Dallas, Tex., 1:200 goat), trimethylated H3K4 (9727L, Cell Signaling Technology, Beverly, Mass., 1:500 rabbit), and Kmt2d H-300 (SC-292359, Santa Cruz Biotechnology, Dallas, Tex., 1:500 rabbit). Non-specific binding was not observed when sections were sequentially exposed to serum (or IgG when appropriate) from the same species as the primary antibody for each experiment (i.e. rabbit for KMT2D and H3K4me3 and goat for doublecortin), followed by the secondary antibody used for KMT2D and H3K4me3 (anti-rabbit) or doublecortin (anti-goat, FIG. 29).
# The area of both the GCL and DCX+ cells was measured using the NS elements 2.0 software (Nikon, Tokyo, JPN). Normalized DCX area was calculated by measuring the DCX+ area of the GCL and setting the baseline (Kmt2d^+/+) fraction to 1. A Student t-test with significance value set at P<0.05 was used for comparison of DCX+ area referenced to GCL area between genotypes and treatment arms.
compound,measurement,setting,value
"CC(C)[C@H](C(=O)Nc1ccc(C(=O)NO)cc1)c1ccccc1 [AR-42, (S)—N-hydroxy-4-(3-methyl-2-phenylbutanamido)benzamide]",relative effect on H3K4me3 among HDACi,[1],strongest effect on H3K4me3
same,genome-wide H3K4me3 in spleen cells of Kmt2d+/βGeo mice,[2],genome-wide increase in H3K4me3; also recorded: overcorrection of genome-wide H3K4me3; also recorded: improved
same,DCX expression in the GCL,"[3]; 10 mg/kg/day, older (5-6 months) Kmt2d+/βGeo mice, FIG. 24D",improved
same,difference in normalized DCX expression between mutant and wild-type animals,"[3]; 10 mg/kg/day, one to two month old mice",no difference between mutant and wild-type animals
same,DCX expression in the GCL,"[3]; 25 mg/kg/day, Kmt2d+/+ animals, FIG. 24C",reduced DCX expression
same,DCX expression in the GCL,"[3]; 25 mg/kg/day, Kmt2d+/βGeo mice, FIG. 24C",did not improve DCX expression
same,DCX expression in the GCL,"[3]; 25 mg/kg/day, young (1-2 month) and old (5-6 month) Kmt2d+/+ and Kmt2d+/βGeo mice",decreased DCX expression
same,DCX expression in the GCL,"[3]; 5 and 10 mg/kg/day, Kmt2d+/+ (preservation) or Kmt2d+/βGeo (restoration), both age groups",preservation or restoration of DCX expression
same,postnatal neurogenesis in the granule cell layer of the dentate gyrus (overall statement),"[3]; mouse model of KS, ages 1-2 months and 5-6 months",beneficial effect; also recorded: rescued postnatal neurogenesis
same,neurogenesis (normalized DCX expression),"[3]; one to two month old Kmt2d+/βGeo mice, 0-10 mg/kg/day, FIG. 25C, 25D",dose-dependent increase in neurogenesis
